pKi: −log10 of the molar value.

The first test concerns the target T1, recombinant human NK3 receptor (Homo sapiens, UniProt P29371).
T1 construct: expressed in transfected cells; host or cells: HEK293 cells, transient expression; membranes
T1 sequence (P29371 1-465): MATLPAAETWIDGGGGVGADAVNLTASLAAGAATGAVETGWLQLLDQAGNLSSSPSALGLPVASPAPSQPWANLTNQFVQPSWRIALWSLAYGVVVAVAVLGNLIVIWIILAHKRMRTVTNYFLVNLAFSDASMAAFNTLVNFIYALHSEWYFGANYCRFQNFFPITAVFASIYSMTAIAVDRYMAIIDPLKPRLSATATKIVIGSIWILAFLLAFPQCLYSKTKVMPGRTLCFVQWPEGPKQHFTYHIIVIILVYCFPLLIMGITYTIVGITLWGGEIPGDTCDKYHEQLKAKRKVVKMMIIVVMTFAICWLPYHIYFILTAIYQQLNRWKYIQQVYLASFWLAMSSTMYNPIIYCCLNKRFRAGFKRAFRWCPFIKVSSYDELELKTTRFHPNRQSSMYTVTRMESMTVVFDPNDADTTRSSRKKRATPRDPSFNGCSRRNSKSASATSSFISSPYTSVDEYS
Description: [3H]SR142801 competition binding assay.
Settings: not given
Take `CN(C(=O)OCCCC(F)(F)C(F)(F)F)[C@H]1CN(C(=O)C2CCN(C(=O)C3(C)CC3)CC2)C[C@@H]1c1ccc(Cl)c(Cl)c1` (racemic) [Example 88, rac-{(3R,4S)-4-(3,4-Dichloro-phenyl)-1-[1-(1-methyl-cyclopropanecarbonyl)-piperidine-4-carbonyl]-pyrrolidin-3-yl}-methyl-carbamic acid 4,4,5,5,5-pentafluoro-pentyl ester]: the negative logarithm of the Ki (pKi) (as a rule, the negative decadic logarithm of the Ki, by convention in mol/L) is 8.08. As for `CN(C(=O)Oc1ccc(F)cc1)[C@@H]1CN(C(=O)C2CCOC(C)(C)C2)C[C@H]1c1ccc(Cl)cc1` (stereo partly drawn) [Example 146, [(3S,4R)-4-(4-Chloro-phenyl)-1-(2,2-dimethyl-tetrahydro-pyran-4-carbonyl)-pyrrolidin-3-yl]-methyl-carbamic acid 4-fluoro-phenyl ester], the pKi was 8.17. On the same count and under the same terms, the figure for `CN(C(=O)Oc1ccc(F)cc1)[C@@H]1CN(C(=O)C2CCN(c3ccc(Cl)cn3)CC2)C[C@H]1c1ccc(Cl)c(Cl)c1` [Example 308, [(3S,4R)-1-(5′-Chloro-3,4,5,6-tetrahydro-2H-[1,2′]bipyridinyl-4-carbonyl)-4-(3,4-dichloro-phenyl)-pyrrolidin-3-yl]-methyl-carbamic acid 4-fluoro-phenyl ester] is 9.70; for `CN(C(=O)Oc1ccc(F)cc1)[C@@H]1CN(C(=O)C2CCN(c3ccc(Cl)nn3)CC2)C[C@H]1c1ccc(Cl)cc1` [Example 110, {(3S,4R)-4-(4-Chloro-phenyl)-1-[1-(6-chloro-pyridazin-3-yl)-piperidine-4-carbonyl]-pyrrolidin-3-yl}-methyl-carbamic acid 4-fluoro-phenyl ester] it is 9.52; for `Cc1ccc(N2CCC(C(=O)N3C[C@@H](N(C)C(=O)Oc4ccc(F)cc4)[C@H](c4ccc(Cl)cc4)C3)CC2)nc1` [Example 194, [(3S,4R)-4-(4-Chloro-phenyl)-1-(5′-methyl-3,4,5,6-tetrahydro-2H-[1,2′]bipyridinyl-4-carbonyl)-pyrrolidin-3-yl]-methyl-carbamic acid 4-fluoro-phenyl ester] it is 8.46. In the case of `CN(C(=O)Oc1ccc(F)cc1)[C@H]1CN(C(=O)C2CCN(C(=O)C3(C)CC3)CC2)C[C@@H]1c1ccc(Cl)c(Cl)c1` (racemic) [Example 2, rac-{(3R,4S)-4-(3,4-Dichloro-phenyl)-1-[1-(1-methyl-cyclopropanecarbonyl)-piperidine-4-carbonyl]-pyrrolidin-3-yl}-methyl-carbamic acid 4-fluoro-phenyl ester], the negative logarithm of the Ki (pKi) is 9.40. In the case of `CN(C(=O)Oc1ccc(F)cc1)[C@H]1CN(C(=O)C2CCNCC2)C[C@@H]1c1ccc(Cl)c(Cl)c1` (racemic) [Example 72, rac-[(3R,4S)-4-(3,4-Dichloro-phenyl)-1-(piperidine-4-carbonyl)-pyrrolidin-3-yl]-methyl-carbamic acid 4-fluoro-phenyl ester], the negative-log Ki (pKi) was 7.67. For the compound `CN(C(=O)Oc1ccc(F)cc1)[C@@H]1CN(C(=O)C2CCN(C(=O)C3CC(F)(F)C3)CC2)C[C@H]1c1ccc(Cl)c(Cl)c1` [Example 268, {(3S,4R)-4-(3,4-Dichloro-phenyl)-1-[1-(3,3-difluoro-cyclobutanecarbonyl)-piperidine-4-carbonyl]-pyrrolidin-3-yl}-methyl-carbamic acid 4-fluoro-phenyl ester], the negative-log Ki (pKi) was 9.22. Same read-out and setting: to `CN(C(=O)Oc1ccc(F)cc1)[C@@H]1CN(C(=O)C2CCN(C(=O)c3ccc(F)cn3)CC2)C[C@H]1c1ccc(Cl)cc1` [Example 262, {(3S,4R)-4-(4-Chloro-phenyl)-1-[1-(5-fluoro-pyridine-2-carbonyl)-piperidine-4-carbonyl]-pyrrolidin-3-yl}-methyl-carbamic acid 4-fluoro-phenyl ester] belongs 8.41; to `CN(C(=O)Oc1ccc(F)cc1)[C@@H]1CN(C(=O)C2CCN(c3ncccn3)CC2)C[C@H]1c1ccc(Cl)cc1` [Example 183, [(3S,4R)-4-(4-Chloro-phenyl)-1-(1-pyrimidin-2-yl-piperidine-4-carbonyl)-pyrrolidin-3-yl]-methyl-carbamic acid 4-fluoro-phenyl ester], 7.80. Same read-out and setting: the figure for `CN(C(=O)Oc1ccccc1)[C@H]1CN(C(=O)C2CCN(C(=O)C3(C)CC3)CC2)C[C@@H]1c1ccc(Cl)c(Cl)c1` (racemic) [Example 13, rac-{(3R,4S)-4-(3,4-Dichloro-phenyl)-1-[1-(1-methyl-cyclopropanecarbonyl)-piperidine-4-carbonyl]-pyrrolidin-3-yl}-methyl-carbamic acid phenyl ester] is 8.70.

For the compound `CN(C(=O)Oc1ccc(F)cc1)[C@@H]1CN(C(=O)C2CCN(C(=O)C3CCC3)CC2)C[C@H]1c1ccc(Cl)cc1` [Example 247, [(3S,4R)-4-(4-Chloro-phenyl)-1-(1-cyclobutanecarbonyl-piperidine-4-carbonyl)-pyrrolidin-3-yl]-methyl-carbamic acid 4-fluoro-phenyl ester], the pKi was 9.05. Take `CN(C(=O)OCC1CCCO1)[C@@H]1CN(C(=O)C2CCN(c3ccc(C#N)cn3)CC2)C[C@H]1c1ccc(Cl)cc1` (stereo partly drawn) [Example 232, [(3S,4R)-4-(4-Chloro-phenyl)-1-(5′-cyano-3,4,5,6-tetrahydro-2H-[1,2′]bipyridinyl-4-carbonyl)-pyrrolidin-3-yl]-methyl-carbamic acid tetrahydro-furan-2-ylmethyl ester]: the negative logarithm of the Ki (pKi) is 7.66. For `CC(C)N1CC(C(=O)N2CCC(C(=O)N3C[C@@H](N(C)C(=O)Oc4ccc(F)cc4)[C@H](c4ccc(Cl)c(Cl)c4)C3)CC2)CCC1=O` (stereo partly drawn) [Example 282, {(3S,4R)-4-(3,4-Dichloro-phenyl)-1-[1-(1-isopropyl-6-oxo-piperidine-3-carbonyl)-piperidine-4-carbonyl]-pyrrolidin-3-yl}-methyl-carbamic acid 4-fluoro-phenyl ester], the pKi is 8.70.

The same test, now with this note: hNK-3 receptor affinity; membranes from HEK293 cells transiently expressing recombinant human NK3 receptor; [3H]SR142801; Cheng-Prussoff; read-out: Data Ki.
Turning to `CN(C(=O)OCC1(C)CC1)[C@@H]1CN(C(=O)C2CCN(c3ccc(C#N)cn3)CC2)C[C@H]1c1ccc(Cl)cc1` [Example 217, [(3S,4R)-4-(4-Chloro-phenyl)-1-(5′-cyano-3,4,5,6-tetrahydro-2H-[1,2′]bipyridinyl-4-carbonyl)-pyrrolidin-3-yl]-methyl-carbamic acid 1-methyl-cyclopropylmethyl ester], the pKi is 8.11. As for `CN(C(=O)OCCC(F)(F)F)[C@@H]1CN(C(=O)C2CCN(c3ccc(C#N)cn3)CC2)C[C@H]1c1ccc(Cl)cc1` [Example 144, [(3S,4R)-4-(4-Chloro-phenyl)-1-(5′-cyano-3,4,5,6-tetrahydro-2H-[1,2′]bipyridinyl-4-carbonyl)-pyrrolidin-3-yl]-methyl-carbamic acid 3,3,3-trifluoro-propyl ester], the pKi was 7.68. Regarding `CN(C(=O)OCCC1CC1)[C@@H]1CN(C(=O)C2CCN(C(=O)C3(C)CC3)CC2)C[C@H]1c1ccc(Cl)cc1` (stereo in doubt) [Example 64, {(3S,4R)-4-(4-Chloro-phenyl)-1-[1-(1-methyl-cyclopropanecarbonyl)-piperidine-4-carbonyl]-pyrrolidin-3-yl}-methyl-carbamic acid 2-cyclopropyl-ethyl ester], the pKi was 7.82. In the case of `CN(C(=O)OC1(C)CCCC1)[C@@H]1CN(C(=O)C2CCN(c3ccc(C#N)cn3)CC2)C[C@H]1c1ccc(Cl)cc1` [Example 243, [(3S,4R)-4-(4-Chloro-phenyl)-1-(5′-cyano-3,4,5,6-tetrahydro-2H-[1,2′]bipyridinyl-4-carbonyl)-pyrrolidin-3-yl]-methyl-carbamic acid 1-methyl-cyclopentyl ester], the pKi was 7.33.

Values taken from patent US9226916B2, “Pyrrolidine derivatives” (HOFFMANN-LA ROCHE INC., priority 2009, dated 2016).
